The values below come from ChEMBL document CHEMBL1126165, “Preparation and evaluation of some hydrophilic phenylacetyl-piperazines as peripherally selective -opioid receptor agonists” (Bioorg Med Chem Lett, 1992).

Data set [1] can be described thus: Lipophilicity was expressed as Log D. The following applies: octanol/water.
Data set [2] relates to Mus musculus. Description: Tested in vivo for antinociceptive activity using the mouse acetylcholine induced abdominal constriction test by subcutaneous (s.c.) administration. The note with it: Abdomen, sc. It counts as functional.
Data set [3] has as its system Mus musculus. Description: Tested in vivo for antinociceptive activity using the mouse acetylcholine induced abdominal constriction test by intracerebroventricular (i.c.v.) administration. It counts as functional. The note with it: Abdomen, central.
The nature of data set [4]: Ratio of antinociceptive activity measured using mouse acetylcholine induced abdominal constriction test by s.c. administration to that done by i.c.v. It is filed as functional, Abdomen.

The structures appear in SMILES notation.

As to `COc1ccc(CC(=O)N2CCN(C(C)=O)CC2CN2CC[C@H](O)C2)cc1` (some centres not stated), the logD (commonly lipophilicity at a set pH, counting ionised and neutral species) in data set [1] is -0.1.

`CSc1ccc(CC(=O)N2CCN(C(C)=O)CC2CN2CC[C@H](O)C2)cc1` (some centres not stated): the ED50 (as a rule, the dose that gives a 50% effect, or the effect in half of the subjects) in data set [2] stood at 1.52 mg/kg; in data set [3], 0.075 mg/kg. In data set [4], the Ratio was 20. For the same molecule, the logD in data set [1] came out at 0.6.

On to `CC(=O)N1CCN(C(=O)Cc2ccc([N+](=O)[O-])cc2)C(CN2CC[C@H](O)C2)C1` (some centres not stated), for which the ED50 was 4.8 mg/kg in data set [2] and 0.024 mg/kg in data set [3]. The Ratio in data set [4] is on record as 200. Moreover, the logD in data set [1] came to 0.

Regarding `CC(=O)N1CCN(C(=O)Cc2ccc([S+](C)[O-])cc2)C(CN2CC[C@H](O)C2)C1` (some centres not stated), the logD in data set [1] was under -0.5.

For `COc1cccc(CC(=O)N2CCN(C(C)=O)CC2CN2CC[C@H](O)C2)c1` (some centres not stated), the logD in data set [1] was found to be 0.

Take `COC(=O)N1CCN(C(=O)Cc2ccc(Cl)c(Cl)c2)[C@H](CN2CCCC2)C1`: the ED50 stood at 0.0003 mg/kg in data set [2] and 0.0002 mg/kg in data set [3]. The Ratio in data set [4] was 1.5. The same molecule showed a logD in data set [1] of 3.1.

In the case of `CC(=O)N1CCN(C(=O)Cc2ccc(C(F)(F)F)cc2)C(CN2CC[C@H](O)C2)C1` (some centres not stated), the ED50 in data set [2] was 0.76 mg/kg; in data set [3], 0.008 mg/kg. In data set [4], the Ratio stood at 95. The molecule further displayed a logD in data set [1] of 1.

Regarding `CN(C(=O)Cc1ccc(Cl)c(Cl)c1)C(CN1CCCC1)c1cccc(OCC(=O)O)c1` (configuration not stated) [ICI-204448], the values for the ED50 in data set [2] and in data set [3] were 4.4 mg/kg and 0.13 mg/kg, respectively. In addition, the logD in data set [1] is 0.3.

With `CC(=O)N1CCN(C(=O)Cc2ccc(Cl)c(Cl)c2)C(CN2CC[C@H](O)C2)C1` (some centres not stated), the ED50 in data set [2] came out at 0.7 mg/kg; in data set [3], 0.007 mg/kg. In addition, the Ratio in data set [4] came to 100. For the same molecule, in data set [1], the logD turned out to be 1.2.

As for `CC(=O)N1CCN(C(=O)Cc2cc(F)cc(F)c2)C(CN2CC[C@H](O)C2)C1` (some centres not stated), the figures for the ED50 in data set [2] and in data set [3] were 2.5 mg/kg and 0.006 mg/kg, respectively. Besides, the Ratio in data set [4] stood at 417. The same molecule yielded a logD in data set [1] of 0.3.

In the case of `CC(=O)N1CCN(C(=O)Cc2ccccc2)C(CN2CC[C@H](O)C2)C1` (some centres not stated), in data set [1], the logD was -0.1.

On to `CC(=O)N1CCN(C(=O)Cc2ccc(S(C)(=O)=O)cc2)C(CN2CC[C@H](O)C2)C1` (some centres not stated), for which the ED50 in data set [2] amounted to 2.21 mg/kg; in data set [3], 0.0008 mg/kg. Further, the Ratio in data set [4] was 2762. In data set [1], this molecule came in with a logD of under -0.5.

Regarding `CC(=O)N1CCN(C(=O)Cc2cccc([N+](=O)[O-])c2)C(CN2CC[C@H](O)C2)C1` (some centres not stated), the ED50 in data set [2] amounted to 0.74 mg/kg; in data set [3] it was 0.006 mg/kg.
